Here are results for 7 compounds from US11566057B2, “Long-acting co-agonists of the glucagon and GLP-1 receptors” (Merck Sharp & Dohme Corp., priority 2017, dated 2023).

The target in the assay is T1, human GCGR (Homo sapiens, UniProt P47871).
T1 construct: expressed in transfected cells; growth medium holds Blasticidin and Hygromycin
Nature of the assay: cAMP activity assay at the Glucagon receptor (GCGR). The class given is cell-based. As to conditions: for hGCGR/hGLP1R (hTone): ratio of GCGR EC50 to GLP1R EC50; for EC50: cells expressing human GCGR, cAMP production, buffer with or without 20% human serum (not stated which), read-out: GCGR EC50 human. On the procedure:
Activity of the peptides at the Glucagon receptor (GCGR) and GLP-1 receptor (GLP1R) was measured in a cAMP activity assay.
GCG/GLP-1 receptor co-agonist peptides were dissolved in 100% DMSO (dimethyl sulfoxide) and serially diluted to generate 10 point titrations. The peptide solutions were then transferred into 384-well assay plates (150 nL/well). Assay ready frozen cells expressing human GLP1R or human GCGR were suspended in growth media consisting of DMEM medium (GIBCO®), 10% FBS (GIBCO®), 1×NEAA(GIBCO®), 1×P/S (GIBCO®), 10 ug/mL Blasticidin (GIBCO®) and 200 μg/mL Hygromycin (GIBCO®). […] The cell suspensions (15 μL) were then added to the assay plates containing the peptide solutions (30,000 cells/well for human GCGR; 10,000 cells/well for human GLP1R). The cells were incubated for 1 hour at room temperature in the dark. Production of cAMP was determined using HitHunter™ cAMPXS kits (DiscoverX) following manufacturer protocol. The plates were incubated for overnight at room temperature in the dark. Luminescence was measured using an EnVision Multilabel plate reader (Perkin Elmer). Native GLP-1 and Glucagon (Bachem) are used as control peptides. EC50 values were calculated using uses a 4 parameter logistic fit based on the Levenberg-Marquardt algorithm.

Each structure is given as a SMILES string. Numbered stars: 1 amine (or outer) side, 2 acyl side, 3 side chain; on linkers, the order of the positions; unused ones are H or OH. Square brackets hold non-standard residues; d marks the D form. Side chains are listed from the residue outwards. Peptide text beside a SMILES is read from it. * marks the point of attachment. Phe(4-CH2NH2) = NCc1ccc(C[C@H](N)C(=O)O)cc1; C18 diacid = O=C(O)CCCCCCCCCCCCCCCCC(=O)*; γGlu = O=C(O)[C@H](CCC(=O)[*:2])N[*:1]; Met(O2) = CS(=O)(=O)CC[C@H](N)C(=O)O; PEG5 = NCCOCCOCCOCCOCCOCCC(=O)O; αMeD = C[C@](N)(CC(=O)O)C(=O)O; AEEA = NCCOCCOCC(=O)O; Aib = CC(C)(N)C(=O)O

T1 sequence (P47871 26-477): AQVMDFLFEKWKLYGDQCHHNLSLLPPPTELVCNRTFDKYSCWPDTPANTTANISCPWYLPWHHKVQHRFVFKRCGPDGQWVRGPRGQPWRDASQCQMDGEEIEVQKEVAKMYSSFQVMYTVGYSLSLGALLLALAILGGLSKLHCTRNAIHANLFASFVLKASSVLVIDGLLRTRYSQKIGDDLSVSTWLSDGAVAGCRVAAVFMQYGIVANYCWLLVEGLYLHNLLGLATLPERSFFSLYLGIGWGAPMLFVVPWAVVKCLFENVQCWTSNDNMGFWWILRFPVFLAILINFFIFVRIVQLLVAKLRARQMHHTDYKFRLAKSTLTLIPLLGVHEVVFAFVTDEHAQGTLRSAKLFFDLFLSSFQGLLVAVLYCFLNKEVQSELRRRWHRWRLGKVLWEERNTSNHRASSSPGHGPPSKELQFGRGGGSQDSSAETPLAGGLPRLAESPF

On to `CC(C)C[C@H](NC(=O)[C@H](CC(C)C)NC(=O)[C@H](CCCCN)NC(=O)[C@H](CO)NC(=O)[C@H](Cc1ccc(O)cc1)NC(=O)[C@H](CC(=O)O)NC(=O)[C@H](CO)NC(=O)[C@@H](NC(=O)[C@H](Cc1ccccc1)NC(=O)[C@@H](NC(=O)CNC(=O)[C@H](CCC(N)=O)NC(=O)C(C)(C)NC(=O)[C@@H](N)Cc1c[nH]cn1)[C@@H](C)O)[C@@H](C)O)C(=O)N[C@@H](CC(=O)O)C(=O)N[C@@H](C)C(=O)N[C@@H](CCCNC(=N)N)C(=O)N[C@@H](C)C(=O)N[C@@H](C)C(=O)N[C@@H](CCCCNC(=O)COCCOCCNC(=O)COCCOCCNC(=O)CC[C@H](NC(=O)CCCCCCCCCCCCCCCCC(=O)O)C(=O)O)C(=O)N[C@@H](CC(=O)O)C(=O)N[C@@H](Cc1ccccc1)C(=O)N[C@H](C(=O)N[C@@H](CCC(N)=O)C(=O)N[C@@H](Cc1c[nH]c2ccccc12)C(=O)N[C@@H](CC(C)C)C(=O)N[C@@H](CCS(C)(=O)=O)C(=O)N[C@@H](CC(=O)O)C(=O)N[C@H](C(N)=O)[C@@H](C)O)C(C)C` [TP597] (H-H[Aib]QGTFTSDYSKLLDARAAK([AEEA-AEEA-γGlu-C18 diacid])DFVQWL[Met(O2)]DT-NH2; N-terminus assumed), for which the “hGCGR/hGLP1R (hTone)” value is 1.2.

With `CC(C)C[C@H](NC(=O)[C@H](Cc1ccc(O)cc1)NC(=O)[C@H](CCCCN)NC(=O)[C@H](CO)NC(=O)[C@H](Cc1ccc(O)cc1)NC(=O)[C@H](CC(=O)O)NC(=O)[C@H](CO)NC(=O)[C@@H](NC(=O)[C@H](Cc1ccccc1)NC(=O)[C@@H](NC(=O)CNC(=O)[C@H](CCC(N)=O)NC(=O)C(C)(C)NC(=O)[C@@H](N)Cc1c[nH]cn1)[C@@H](C)O)[C@@H](C)O)C(=O)N[C@@H](CC(=O)O)C(=O)N[C@@H](C)C(=O)N[C@@H](CCCCN)C(=O)N[C@@H](C)C(=O)N[C@@H](C)C(=O)N[C@@H](CCCCNC(=O)COCCOCCNC(=O)COCCOCCNC(=O)CC[C@H](NC(=O)CCCCCCCCCCCCCCCCC(=O)O)C(=O)O)C(=O)N[C@@H](CC(=O)O)C(=O)N[C@@H](Cc1ccccc1)C(=O)N[C@H](C(=O)N[C@@H](CCC(N)=O)C(=O)N[C@@H](Cc1c[nH]c2ccccc12)C(=O)N[C@@H](CC(C)C)C(=O)N[C@@H](CCS(C)(=O)=O)C(=O)N[C@@H](CC(=O)O)C(=O)N[C@H](C(N)=O)[C@@H](C)O)C(C)C` [TP598] (H-H[Aib]QGTFTSDYSKYLDAKAAK([AEEA-AEEA-γGlu-C18 diacid])DFVQWL[Met(O2)]DT-NH2; N-terminus assumed), the “hGCGR/hGLP1R (hTone)” value is on record as 2.3.

On to `CC(C)C[C@H](NC(=O)[C@H](Cc1ccc(O)cc1)NC(=O)[C@H](CCCCN)NC(=O)[C@H](CO)NC(=O)[C@H](Cc1ccc(O)cc1)NC(=O)[C@H](CC(=O)O)NC(=O)[C@H](CO)NC(=O)[C@@H](NC(=O)[C@H](Cc1ccccc1)NC(=O)[C@@H](NC(=O)CNC(=O)[C@H](CCC(N)=O)NC(=O)C(C)(C)NC(=O)[C@@H](N)Cc1c[nH]cn1)[C@@H](C)O)[C@@H](C)O)C(=O)N[C@@H](CC(=O)O)C(=O)N[C@@H](C)C(=O)N[C@@H](CCCNC(=N)N)C(=O)N[C@@H](C)C(=O)N[C@@H](C)C(=O)N[C@@H](CCC(N)=O)C(=O)N[C@@H](CC(=O)O)C(=O)N[C@@H](Cc1ccccc1)C(=O)N[C@H](C(=O)N[C@@H](CCC(N)=O)C(=O)N[C@@H](Cc1c[nH]c2ccccc12)C(=O)N[C@@H](CC(C)C)C(=O)N[C@@H](CCS(C)(=O)=O)C(=O)N[C@@H](Cc1ccc(CNC(=O)COCCOCCNC(=O)COCCOCCNC(=O)CC[C@H](NC(=O)CCCCCCCCCCCCCCCCC(=O)O)C(=O)O)cc1)C(=O)N[C@H](C(N)=O)[C@@H](C)O)C(C)C` [TP604] (H-H[Aib]QGTFTSDYSKYLDARAAQDFVQWL[Met(O2)][Phe(4-CH2NH2)]([AEEA-AEEA-γGlu-C18 diacid])T-NH2; N-terminus assumed), for which the “hGCGR/hGLP1R (hTone)” value was determined as 2.3.

`CC(C)C[C@H](NC(=O)[C@H](Cc1ccc(O)cc1)NC(=O)[C@H](CCCCN)NC(=O)[C@H](CO)NC(=O)[C@H](Cc1ccc(O)cc1)NC(=O)[C@H](CC(=O)O)NC(=O)[C@H](CO)NC(=O)[C@@H](NC(=O)[C@H](Cc1ccccc1)NC(=O)[C@@H](NC(=O)CNC(=O)[C@H](CCC(N)=O)NC(=O)C(C)(C)NC(=O)[C@@H](N)Cc1c[nH]cn1)[C@@H](C)O)[C@@H](C)O)C(=O)N[C@@H](CC(=O)O)C(=O)N[C@@H](C)C(=O)N[C@@H](CCCNC(=N)N)C(=O)N[C@@H](C)C(=O)N[C@@H](C)C(=O)N[C@@H](CCC(N)=O)C(=O)N[C@@H](CCCCNC(=O)CCOCCOCCOCCOCCOCCNC(=O)CC[C@H](NC(=O)CCCCCCCCCCCCCCCCC(=O)O)C(=O)O)C(=O)N[C@@H](Cc1ccccc1)C(=O)N[C@H](C(=O)N[C@@H](CCC(N)=O)C(=O)N[C@@H](Cc1c[nH]c2ccccc12)C(=O)N[C@@H](CC(C)C)C(=O)N[C@@H](CCS(C)(=O)=O)C(=O)N[C@@](C)(CC(=O)O)C(=O)N[C@H](C(N)=O)[C@@H](C)O)C(C)C` [TP608] (H-H[Aib]QGTFTSDYSKYLDARAAQK([PEG5-γGlu-C18 diacid])FVQWL[Met(O2)][αMeD]T-NH2): the “hGCGR/hGLP1R (hTone)” value was found to be 0.9.

As to `CC(C)C[C@H](NC(=O)[C@H](Cc1ccc(O)cc1)NC(=O)[C@H](CCCCN)NC(=O)[C@H](CO)NC(=O)[C@H](Cc1ccc(O)cc1)NC(=O)[C@H](CC(=O)O)NC(=O)[C@H](CO)NC(=O)[C@@H](NC(=O)[C@H](Cc1ccccc1)NC(=O)[C@@H](NC(=O)CNC(=O)[C@H](CCC(N)=O)NC(=O)C(C)(C)NC(=O)[C@@H](N)Cc1c[nH]cn1)[C@@H](C)O)[C@@H](C)O)C(=O)N[C@@H](CC(=O)O)C(=O)N[C@@H](C)C(=O)N[C@@H](CCCNC(=N)N)C(=O)N[C@@H](C)C(=O)N[C@@H](C)C(=O)N[C@@H](CCC(N)=O)C(=O)N[C@@H](Cc1ccc(CNC(=O)COCCOCCNC(=O)COCCOCCNC(=O)CC[C@H](NC(=O)CCCCCCCCCCCCCCCCC(=O)O)C(=O)O)cc1)C(=O)N[C@@H](Cc1ccccc1)C(=O)N[C@H](C(=O)N[C@@H](CCC(N)=O)C(=O)N[C@@H](Cc1c[nH]c2ccccc12)C(=O)N[C@@H](CC(C)C)C(=O)N[C@@H](CC(C)C)C(=O)N[C@@](C)(CC(=O)O)C(=O)N[C@H](C(N)=O)[C@@H](C)O)C(C)C` [TP609] (H-H[Aib]QGTFTSDYSKYLDARAAQ[Phe(4-CH2NH2)]([AEEA-AEEA-γGlu-C18 diacid])FVQWLL[αMeD]T-NH2; N-terminus assumed), the “hGCGR/hGLP1R (hTone)” value amounted to 0.9.

On to `CC(C)C[C@H](NC(=O)[C@H](Cc1ccc(O)cc1)NC(=O)[C@H](CCCCN)NC(=O)[C@H](CO)NC(=O)[C@H](Cc1ccc(O)cc1)NC(=O)[C@H](CC(=O)O)NC(=O)[C@H](CO)NC(=O)[C@@H](NC(=O)[C@H](Cc1ccccc1)NC(=O)[C@@H](NC(=O)CNC(=O)[C@H](CCC(N)=O)NC(=O)C(C)(C)NC(=O)[C@@H](N)Cc1c[nH]cn1)[C@@H](C)O)[C@@H](C)O)C(=O)N[C@@H](CC(=O)O)C(=O)N[C@@H](CCC(=O)O)C(=O)N[C@@H](CCCNC(=N)N)C(=O)N[C@@H](C)C(=O)N[C@@H](C)C(=O)N[C@@H](CCCCNC(=O)COCCOCCNC(=O)COCCOCCNC(=O)CC[C@H](NC(=O)CCCCCCCCCCCCCCCCC(=O)O)C(=O)O)C(=O)N[C@@H](CC(=O)O)C(=O)N[C@@H](Cc1ccccc1)C(=O)N[C@H](C(=O)N[C@@H](CCC(N)=O)C(=O)N[C@@H](Cc1c[nH]c2ccccc12)C(=O)N[C@@H](CC(C)C)C(=O)N[C@@H](CCS(C)(=O)=O)C(=O)N[C@@](C)(CC(=O)O)C(=O)N[C@H](C(N)=O)[C@@H](C)O)C(C)C` [TP613] (H-H[Aib]QGTFTSDYSKYLDERAAK([AEEA-AEEA-γGlu-C18 diacid])DFVQWL[Met(O2)][αMeD]T-NH2), for which the EC50 was over 5 nM and the “hGCGR/hGLP1R (hTone)” value was over 6.

Take `CC(C)C[C@H](NC(=O)[C@H](Cc1ccc(O)cc1)NC(=O)[C@H](CCCCN)NC(=O)[C@H](CO)NC(=O)[C@H](Cc1ccc(O)cc1)NC(=O)[C@H](CC(=O)O)NC(=O)[C@H](CO)NC(=O)[C@@H](NC(=O)[C@H](Cc1ccccc1)NC(=O)[C@@H](NC(=O)CNC(=O)[C@H](CCC(N)=O)NC(=O)C(C)(C)NC(=O)[C@@H](N)Cc1c[nH]cn1)[C@@H](C)O)[C@@H](C)O)C(=O)N[C@@H](CC(=O)O)C(=O)N[C@@H](C)C(=O)N[C@@H](CCCNC(=N)N)C(=O)N[C@@H](C)C(=O)N[C@@H](C)C(=O)N[C@@H](CCCCNC(=O)COCCOCCNC(=O)CC[C@H](NC(=O)CCCCCCCCCCCCCCCCC(=O)O)C(=O)O)C(=O)N[C@@H](CC(=O)O)C(=O)N[C@@H](Cc1ccccc1)C(=O)N[C@H](C(=O)N[C@@H](CCC(N)=O)C(=O)N[C@@H](Cc1c[nH]c2ccccc12)C(=O)N[C@@H](CC(C)C)C(=O)N[C@@H](CCS(C)(=O)=O)C(=O)N[C@@](C)(CC(=O)O)C(=O)N[C@H](C(N)=O)[C@@H](C)O)C(C)C` [TP628] (H-H[Aib]QGTFTSDYSKYLDARAAK([AEEA-γGlu-C18 diacid])DFVQWL[Met(O2)][αMeD]T-NH2; N-terminus assumed): the EC50 came to 0.86 nM and the “hGCGR/hGLP1R (hTone)” value was 0.6.
